Measured values taken from ChEMBL document CHEMBL1909046, “DrugMatrix in vitro pharmacology data”.
pIC50, pKi: −log10 of the molar value.

Columns and labels:
[1] = target: T1, Alpha-1B adrenergic receptor (Rattus norvegicus, UniProt P15823); test: DRUGMATRIX: Alpha-1B adrenergic receptor radioligand binding (ligand: prazosin); type: cell membranes, Wistar, Liver, Membrane; details: Not Active = under 50% inhibition at 10 µM
T1 sequence (P15823 whole entry): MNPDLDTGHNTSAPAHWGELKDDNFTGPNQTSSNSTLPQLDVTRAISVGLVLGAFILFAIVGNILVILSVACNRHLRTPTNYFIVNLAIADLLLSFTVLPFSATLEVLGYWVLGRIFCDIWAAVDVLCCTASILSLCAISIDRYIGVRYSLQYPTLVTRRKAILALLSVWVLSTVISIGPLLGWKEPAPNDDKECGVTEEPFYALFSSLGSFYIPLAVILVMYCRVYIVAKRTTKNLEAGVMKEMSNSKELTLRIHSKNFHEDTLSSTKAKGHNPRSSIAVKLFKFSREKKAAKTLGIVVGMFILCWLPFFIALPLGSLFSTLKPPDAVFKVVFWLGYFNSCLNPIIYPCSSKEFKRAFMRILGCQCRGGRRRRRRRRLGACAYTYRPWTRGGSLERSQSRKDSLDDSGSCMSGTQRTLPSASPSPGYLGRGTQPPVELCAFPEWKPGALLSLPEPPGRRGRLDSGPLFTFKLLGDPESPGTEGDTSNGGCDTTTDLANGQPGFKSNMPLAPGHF

[2] = DRUGMATRIX: Atrial Natriuretic Factor (ANF) radioligand binding (ligand: [125I] ANF (rat)); type: cell membranes, Cavia porcellus, Dunkin-Hartley, Adrenal gland, Membrane; details: Not Active = under 50% inhibition at 10 µM
[3] = target: T2, 5-hydroxytryptamine receptor 2C (Homo sapiens, UniProt P28335); test: DRUGMATRIX: Serotonin (5-Hydroxytryptamine) 5-HT2C radioligand binding (ligand: [3H] Mesulergine); type: cell membranes, CHO-K1, Membrane; details: cho-k1; Not Active = under 50% inhibition at 10 µM
T2 sequence (P28335 whole entry): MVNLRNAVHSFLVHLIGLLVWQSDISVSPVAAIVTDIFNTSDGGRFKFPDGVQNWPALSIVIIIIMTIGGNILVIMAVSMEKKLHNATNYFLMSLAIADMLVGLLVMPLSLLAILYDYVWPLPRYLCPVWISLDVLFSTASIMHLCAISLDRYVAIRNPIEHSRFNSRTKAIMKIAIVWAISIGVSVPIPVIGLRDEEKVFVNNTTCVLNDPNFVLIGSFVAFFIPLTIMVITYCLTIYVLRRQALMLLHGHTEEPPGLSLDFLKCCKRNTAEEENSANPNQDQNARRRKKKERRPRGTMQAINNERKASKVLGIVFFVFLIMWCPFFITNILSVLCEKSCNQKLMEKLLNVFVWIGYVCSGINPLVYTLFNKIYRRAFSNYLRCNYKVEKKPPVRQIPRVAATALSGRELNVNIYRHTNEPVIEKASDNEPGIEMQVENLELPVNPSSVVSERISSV

[4] = target: T3, C-X-C chemokine receptor type 1 (Homo sapiens, UniProt P25024); further: in other assays of this panel Not Active means under 50% inhibition at 10 µM
T3 sequence (P25024 whole entry): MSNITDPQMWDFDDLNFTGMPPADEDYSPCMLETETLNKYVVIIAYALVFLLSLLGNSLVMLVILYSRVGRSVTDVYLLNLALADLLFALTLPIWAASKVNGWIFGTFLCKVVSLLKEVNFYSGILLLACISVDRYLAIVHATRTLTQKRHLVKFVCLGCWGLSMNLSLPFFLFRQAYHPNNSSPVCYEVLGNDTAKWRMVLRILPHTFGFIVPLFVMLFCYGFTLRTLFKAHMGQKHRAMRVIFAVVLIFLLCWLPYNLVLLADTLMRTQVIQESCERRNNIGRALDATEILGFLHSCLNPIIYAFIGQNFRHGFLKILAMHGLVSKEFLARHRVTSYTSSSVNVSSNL

Endothelin-1 receptor = target: T4, Endothelin-1 receptor (Homo sapiens, UniProt P25101); type: cell membranes, Membrane; details: cho-k1; further: in other assays of this panel Not Active means under 50% inhibition at 10 µM
T4 sequence (P25101 whole entry): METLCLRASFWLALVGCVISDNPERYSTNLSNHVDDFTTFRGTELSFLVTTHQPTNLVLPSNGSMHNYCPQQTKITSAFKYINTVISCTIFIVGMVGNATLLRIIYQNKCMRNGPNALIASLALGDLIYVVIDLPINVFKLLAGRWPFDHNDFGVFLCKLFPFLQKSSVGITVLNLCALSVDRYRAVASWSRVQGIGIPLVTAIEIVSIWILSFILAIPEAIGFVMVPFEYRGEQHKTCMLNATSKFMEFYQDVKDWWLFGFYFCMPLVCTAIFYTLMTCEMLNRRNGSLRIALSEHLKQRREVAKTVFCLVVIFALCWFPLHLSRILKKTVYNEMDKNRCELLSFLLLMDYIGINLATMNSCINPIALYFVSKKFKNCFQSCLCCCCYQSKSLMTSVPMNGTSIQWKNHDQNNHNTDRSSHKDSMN

Leukotriene C4 synthase = target: T5, Leukotriene C4 synthase (Cavia porcellus, UniProt A6XA80); test: biochemical; type: tissue-based, Lung;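 further: enzyme inhibition assay of leukotriene C4 synthase, using LTA4 as the substrate; in other assays of this panel Not Active means under 50% inhibition at 10 µM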
T5 sequence (A6XA80 whole entry): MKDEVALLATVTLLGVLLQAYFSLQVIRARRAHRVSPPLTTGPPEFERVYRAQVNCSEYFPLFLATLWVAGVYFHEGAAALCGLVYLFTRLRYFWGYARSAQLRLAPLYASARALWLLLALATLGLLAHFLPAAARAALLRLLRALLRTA

[5] = target: T6, Polyunsaturated fatty acid lipoxygenase ALOX15 (Oryctolagus cuniculus, UniProt P12530); test: biochemical; type: tissue-based, Reticulocytes; details: reticulocytes;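 further: inhibition of 15-lipoxygenase enzyme activity measured with linoleic acid as the substrate; in other assays of this panel Not Active means under 50% inhibition at 10 µM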
T6 sequence (P12530 whole entry): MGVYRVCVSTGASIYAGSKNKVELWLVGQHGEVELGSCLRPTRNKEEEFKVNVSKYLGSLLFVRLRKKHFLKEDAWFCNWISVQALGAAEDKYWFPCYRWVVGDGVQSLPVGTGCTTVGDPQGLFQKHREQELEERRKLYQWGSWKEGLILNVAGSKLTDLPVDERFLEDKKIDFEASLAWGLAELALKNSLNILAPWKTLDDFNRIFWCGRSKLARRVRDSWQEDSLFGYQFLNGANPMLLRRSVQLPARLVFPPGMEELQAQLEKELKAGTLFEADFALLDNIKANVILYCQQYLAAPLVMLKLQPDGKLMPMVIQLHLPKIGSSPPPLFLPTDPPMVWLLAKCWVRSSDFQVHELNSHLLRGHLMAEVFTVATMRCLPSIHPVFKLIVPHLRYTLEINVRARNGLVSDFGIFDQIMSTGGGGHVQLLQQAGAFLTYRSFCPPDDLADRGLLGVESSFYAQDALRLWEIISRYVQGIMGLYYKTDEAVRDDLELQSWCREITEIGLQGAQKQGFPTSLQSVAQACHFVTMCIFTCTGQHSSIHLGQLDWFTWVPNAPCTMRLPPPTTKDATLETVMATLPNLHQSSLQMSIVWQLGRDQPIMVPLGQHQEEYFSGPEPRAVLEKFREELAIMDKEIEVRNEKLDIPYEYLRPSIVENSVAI

[6] = target: Protein kinase C alpha type (Homo sapiens, UniProt P17252); type: cell-based; details: sf9
Acetylcholinesterase = Acetylcholinesterase (Homo sapiens, UniProt P22303); test: DRUGMATRIX: Acetylcholinesterase enzyme inhibition (substrate: acetylthiocholine); type: cell-based, HEK293; details: hek293; Not Active = under 50% inhibition at 10 µM
Acetylcholinesterase, sequence (P22303 whole entry): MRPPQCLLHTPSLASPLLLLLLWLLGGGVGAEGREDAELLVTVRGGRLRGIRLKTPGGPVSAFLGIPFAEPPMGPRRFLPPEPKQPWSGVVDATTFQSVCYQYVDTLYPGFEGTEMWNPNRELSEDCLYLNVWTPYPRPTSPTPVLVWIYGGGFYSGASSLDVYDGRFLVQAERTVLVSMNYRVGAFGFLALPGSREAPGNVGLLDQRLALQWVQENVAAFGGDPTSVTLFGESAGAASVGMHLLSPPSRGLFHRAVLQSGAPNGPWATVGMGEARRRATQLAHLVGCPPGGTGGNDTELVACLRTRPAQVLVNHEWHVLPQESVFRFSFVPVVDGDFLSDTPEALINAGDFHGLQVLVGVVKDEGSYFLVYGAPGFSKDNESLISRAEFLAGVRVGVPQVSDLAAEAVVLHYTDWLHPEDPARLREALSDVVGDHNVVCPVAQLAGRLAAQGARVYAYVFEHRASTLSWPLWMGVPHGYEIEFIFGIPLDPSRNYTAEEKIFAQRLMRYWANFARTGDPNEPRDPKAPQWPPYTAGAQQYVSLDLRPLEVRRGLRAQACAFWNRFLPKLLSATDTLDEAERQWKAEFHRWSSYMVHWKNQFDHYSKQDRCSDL

Row | Compound | IC50 [1] | IC50 [2] | Ki [2] | IC50 [3] | IC50 [4] | IC50 (Endothelin-1 receptor) | IC50 (Leukotriene C4 synthase) | IC50 [5] | IC50 [6] | IC50 (Acetylcholinesterase) | pIC50 ([1]; read-out: IC50) | pKi ([1]; read-out: Ki) | Ki [1] | Ki [3] | Ki [4] | Ki (Endothelin-1 receptor) | Ki (Leukotriene C4 synthase) | Ki [5] | Ki [6] | Ki (Acetylcholinesterase)
1 | CN[C@H](CC(C)C)C(=O)N[C@H]1C(=O)N[C@@H](CC(N)=O)C(=O)N[C@H]2C(=O)N[C@H]3C(=O)N[C@H](C(=O)N[C@H](C(=O)O)c4cc(O)cc(O)c4-c4cc3ccc4O)[C@H](O)c3ccc(c(Cl)c3)Oc3cc2cc(c3O[C@@H]2O[C@H](CO)[C@@H](O)[C@H](O)[C@H]2O[C@H]2C[C@](C)(N)[C@H](O)[C@H](C)O2)Oc2ccc(cc2Cl)[C@H]1O [VANCOMYCIN] | Not Active | Not Active | Not Active | Not Active | Not Active | Not Active | Not Active | Not Active | Not Active | Not Active | – | – | – | – | – | – | – | – | – | –
2 | COc1ccc(C(CN(C)C)C2(O)CCCCC2)cc1 (centres undefined) [VENLAFAXINE] | Not Active | Not Active | Not Active | Not Active | Not Active | Not Active | Not Active | Not Active | Not Active | Not Active | – | – | – | – | – | – | – | – | – | –
3 | COC(=O)[C@@H]1[C@H]2C[C@H]3c4[nH]c5ccccc5c4CCN3C[C@@H]2CC[C@@H]1O [YOHIMBINE] | – | Not Active | Not Active | Not Active | Not Active | Not Active | Not Active | Not Active | Not Active | Not Active | 5.93 | 6.18 | – | – | – | – | – | – | – | –
4 | IVERMECTIN | Not Active | Not Active | Not Active | Not Active | Not Active | Not Active | Not Active | Not Active | Not Active | Not Active | – | – | Not Active | Not Active | Not Active | Not Active | Not Active | Not Active | Not Active | Not Active
